Patent US20230149507A1, “TREATMENT OF ALT CANCERS” (INSTITUTO DE MEDICINA MOLECULAR JOÃO LOBO ANTUNES, priority 2019, published 2023)

What was measured:
Type in all cases: cell-based, human
HeLa cells [1] = assay: FACS cell cycle analysis of FANCM-depleted HeLa cells with added agents; details: FANCM-depleted HeLa cells; hydroxyurea followed by block release
Description: When indicated, cells were incubated with 1 μM camptothecin (Sigma-Aldrich) for 3 hours, 0.2 mM hydroxyurea (Sigma-Aldrich) for 16 h, 20 μM BIBR 1532 (Merck Millipore) for 7 days, and 10 μM RO-3306 (Selleckchem) for 18 h. […] For fluorescence-activated cell sorting, cells were trypsinized and pelleted by centrifugation at 500 g at 4° C. for 5 min. Cell pellets were either left untreated for viability assays or fixed in 70% ethanol at −20° C. for 30 min and treated with 25 μg/ml RNaseA (Sigma-Aldrich) in 1×PBS at 37° C. for 20 min. Cells were then washed in 1×PBS and stained with 20 μg/ml propidium iodide (Sigma-Aldrich) in 1×PBS at 4° C. for 10 min. Flow cytometry was performed on a BD FACSCalibur or a BD Accuri C6 (BD Biosciences). Data were analyzed using FlowJo software.

HeLa cells [2] = assay: Western blot of pS33 (RPA32 phosphorylated at serine 33); details: FANCM-depleted HeLa cells
Description: HeLa cervical cancer, HT1080 fibrosarcoma, and HEK293 embryonic kidney cells were purchased from ATCC. […] HeLa, HT1080, HEK293, U2OS, and WI-38 VA13 cells were cultured in high glucose DMEM, GlutaMAX (Thermo Fisher Scientific) supplemented with 10% tetracycline-free fetal bovine serum (Pan BioTech) and 100 U/ml penicillin-streptomycin (Thermo Fisher Scientific). HuO9, Saos2, HOS and SKNAS cells were cultured in high glucose DMEM/F12, GlutaMAX (Thermo Fisher Scientific), supplemented with 10% tetracycline-free fetal bovine serum (Pan BioTech), 100 U/ml penicillin-streptomycin (Thermo Fisher Scientific) and non-essential amino acids (Thermo Fisher Scientific). Mycoplasma contaminations were tested using the VenorGeM Mycoplasma PCR Detection Kit (Minerva Biolabs) according to the manufacturer's instructions. When indicated, cells were incubated with 1 μM camptothecin (Sigma-Aldrich) for 3 hours, 0.2 mM hydroxyurea (Sigma-Aldrich) for 16 h, 20 μM BIBR 1532 (Merck Millipore) for 7 days, and 10 μM RO-3306 (Selleckchem) for 18 h. Cells were trypsinized and pelleted by centrifugation at 500 g at 4° C. for 5 min. […] Supernatant were recovered and protein concentrations were determined by Lowry assay using bovine serum albumin (BSA; Sigma-Aldrich) as standard. […]

[3] = system: U-2 OS, GM847 and Saos-2 ALT cell lines; assay: C-circle assay of cells treated with PIP-199; details: 0.5 μM PIP-199 for 72 h vs DMSO
From the text: (a) Schematic of MM2-tamoxifen (40HT)-inducible ER fusion protein-mediated inhibition of the FANCM-BTR complex interaction. […] (c) Tukey boxplots of TIFs in U-2 OS cells expressing MM2-ER or FF>AA-ER fusion proteins in the presence or absence of 40HT. Out of 3 experiments, n=150 cells scored per treatment, **p<0.005, Mann-Whitney test. (d) Representative dot blots and quantitation of C-circle assays in U-2 OS cells expressing MM2-ER or FF>AA-ER fusion proteins in the presence or absence of 40HT. C-circles were normalized to non-induced control. Error bars represent mean±SEM from n 3 experiments, *p<0.05, one-sample t-test. (e) Representative colony formation assay of GM847 and HCT116 cells expressing the MM2-ER fusion protein in the presence or absence of 40HT (top panel). Quantitation of the surviving fraction of colonies for ALT (U-2 OS, GM847 and Saos-2) and telomerase-positive (HeLa and HCT116) cell lines expressing MM2-ER or FF>AA-ER fusion proteins (bottom panel). Colony counts were normalized to non-induced controls. […] (f) Representative dot blots and quantitation of C-circle assays from U-2 OS, GM847, Saos-2, HeLa and HCT116 cells treated with 0.5 μM PIP-199 or vehicle control (DMSO) for 72 h. […] (g) Quantitation of the surviving fraction of colonies from U-2 OS, GM847, Saos-2, HeLa and HCT116 cells treated with PIP-199. […]

[4] = system: U-2 OS, GM847, Saos-2 (ALT), HeLa and HCT116 (telomerase-positive) cells; assay: Clonogenic assay of cells treated with PIP-199
Description: (a) Quantitation of the surviving fraction of colonies from U-2 OS, GM847, Saos-2 (ALT), HeLa and HCT116 (telomerase-positive) cells treated with PIP-199 after 11 days. Colony counts were normalized to DMSO controls. Error bars represent mean±SEM from n=3 experiments, *p<0.05, n.s.=non-significant, Student's t-test.
Clonogenic assays were performed as described in Franken et al., 2006, with cells plated at 1,000 cells/10 cm dish with or without 200 nM 4-hydroxytamoxifen (Sigma Aldrich), which was replenished on days 4 and 7. For cells treated with PIP-199 (Aobious #AOB33732, CAS No: 622795-76-0), cells were plated at 300 cells/well in 6-well plates, and treated with 0-10 μM of drug in dimethyl sulfoxide (DMSO). Cells were left to grow for 11 days. Plates were washed with 1×PBS, then fixed and stained with 0.5% (w/v) crystal violet in 1 part acetic acid, 7 parts methanol for 2 h at room temperature. Plates were then washed with tap water and left to air dry. Colonies on each plate were counted and the plating efficiency and surviving fraction calculated.

U2OS interphase cells = assay: Telomeric DNA FISH, number and area of telomeric foci, RO-3306 control; details: siCt-transfected cells
Description: FIG. 17. FANCM depletion alters telomeric DNA in interphase U2OS cells. (A) Western blot analysis of FANCM protein levels in U2OS cells transfected and treated with RO-3306 as indicated. Cells were harvested 48 hours after transfection. POLD3, RAD51 and PML levels were also analyzed. Beta Actin and LMB1 serve as loading controls. (B) Quantifications of FACS profiles of cells as in A stained with PI. […] R: RO-3306. (C)) Quantifications of numbers of telomeric foci per nucleus in experiments as in A. Each dot represents an individual nucleus. A total of at least 300 nuclei from three independent experiments were analyzed for each sample. Bars and error bars are means and SDs. P values were calculated with a Mann-Whitney U test. (D) Area distribution of telomeric foci areas in experiments as in C. 3D images were sum projected and areas of individual nuclear FISH signals were measured using DAPI staining to identify nuclei (not shown). A total of at least 300 nuclei from three independent experiments were analyzed for each sample. Areas of telomeric foci (in pixels) are binned into 25 intervals of 5-pixel width (x axis; numbers indicate bin centers) and plotted against frequencies (y axis; %). […] (E) Quantification of cells with at least 5 Large (L) foci in experiments as in C. P values were calculated with a two-tailed Student's t-test. *P<0.05, **P<0.005, ***P<0.001, ****P<0.0001. […]

U2OS cells [5] = assay: PML, RAD51, POLD3 localization at telomeres (IF/FISH), RO-3306 control; details: RO-3306 treatment
Description: (§1) (A) Quantifications experiments for PML or RAD51 immunostaining combined with telomeric DNA FISH. POLD3 immunostaining combined with RAP1 immunostaining (green); and EdU detection combined with and telomeric DNA FISH. Experiments were performed on U2OS cells transfected with the indicated siRNAs and harvested 48 hours after transfection. Each dot represents an individual nucleus. A total of at least 300 nuclei from three independent experiments were analyzed for each sample. Bars and error bars are means and SDs. P values were calculated with a Mann-Whitney U test. ***P<0.001, ****P<0.0001.
Cells grown on coverslips were incubated in CSK buffer for 7 min on ice. All subsequent treatments were performed at room temperature. Cells were fixed with 4% formaldehyde (Sigma-Aldrich) in 1×PBS for 10 min, permeabilized with CSK buffer for 5 min, and incubated in blocking solution (0.5% BSA, 0.1% Tween-20 in 1×PBS) for 1 h. Coverslips were incubated in blocking solution containing primary antibodies for 1 h, washed three times with 0.1% Tween-20 in 1×PBS for 10 min each, and incubated with secondary antibodies diluted in blocking solution for 50 min. DNA was counterstained with 100 ng/ml DAPI in 1×PBS. For combined IF and DNA FISH, cells were again fixed with 4% formaldehyde in 1×PBS for 10 min, washed three times with 1×PBS, incubated in 10 mM Tris-HCl pH 7.2 for 5 min and then denatured and hybridized with TelC-Cy3 probes as described above. DNA was counterstained with 100 ng/ml DAPI in 0.1 M Tris-HCl pH 7.2, 0.15 M NaCl, 0.08% Tween-20 and coverslips were mounted on slides in Vectashield. […]

U2OS cells [6] = assay: Telomere FISH combined with EdU detection, RO-3306 control; details: RO-3306 treatment; to lower extents than FANCM depletion
Description: as §1
24 h after siRNA transfection cells were incubated in 10 μM RO-3306 (Selleckchem). 21.5 h later 10 μM EdU (Thermo Fisher Scientific) was added to the culture medium, followed by a 2.5 h incubation. Cells were first stained as for DNA FISH using the TelC-Cy3 probe and then washed twice with 1×PBS followed by EdU detection using the Click-iT EdU Alexa Fluor 488 Imaging Kit (Thermo Fisher Scientific) according to the manufacturer's instructions. DNA was counterstained with 100 ng/ml DAPI in 1×PBS and coverslips were mounted on slides in Vectashield. Image acquisition and analysis were as for DNA FISH.

NC(=O)NO [HU, hydroxyurea]
cell cycle distribution (HeLa cells [1]): did not show an altered cell cycle distribution | pS33 accumulation (HeLa cells [2]): did not promote pS33 accumulation

CCOC(=O)N1CCN(C(c2ccccn2)c2c(-c3ccccc3)n(O)c3ccccc23)CC1 (centres unmarked) [PIP-199, 4-[(1-Hydroxy-2-phenyl-1H-indol-3-yl)-pyridin-2-yl-methyl]-piperazine-1-carboxylic acid ethyl ester]
C-circles [3]: increase in C-circles | sensitivity in clonogenic assay (surviving fraction of colonies) ([4]; 0-10 μM PIP-199, 11 days, ALT vs telomerase-positive cells): hypersensitivity of ALT cells | surviving fraction of colonies ([4]; normalized to DMSO controls, datapoint exceeding the visible axis of FIG. 11g, cell line not stated): 1.42

O=C1NC(=NCc2cccs2)S/C1=C\c1ccc2ncccc2c1 [RO-3306]
number of telomeric foci (U2OS interphase cells; 10 μM RO-3306): less telomeric foci than control cells | cells with at least 5 large foci (U2OS interphase cells; RO-3306-treated): ~15% | number of telomeric PML foci (U2OS cells [5]): did not substantially affect | number of telomeric RAD51 foci (U2OS cells [5]): did not substantially affect | number of telomeric POLD3 foci (U2OS cells [5]; less importantly than FANCM depletion): increased | incidence of telomeric EdU foci (U2OS cells [6]): increased the incidence of telomeric EdU foci
